The results in this text go back to patent publication US9321735B2, “Insecticidal triazines and pyrimidines” (Vestaron Corporation, priority 2010, dated 2016).

Molecules are shown by their SMILES.

This series concerns beet army worm (Spodoptera exigua). As to the kind of experiment: Insecticidal test for beet armyworm (diet surface treatment, larval mortality). To be noted: 100 μg/cm^2 on diet surface; first instar larvae, 32 insects per treatment; observations 24, 48 and 96 hours after treatment. In kind it is in vivo. As for the experimental part: The compounds identified in Table 8 were prepared according to the previous methods and were tested against beet armyworm and corn earworm as follows:
Insecticidal Test for Beet Armyworm (Spodoptera Exigua).
To prepare the test solution, the test compound was Formulated at 3499 ppm in solution as 5 mg compound/1.429 mL of 9 parts acetone: 1 part deionized H2O and vortexed to homogenize. 50 μL of the 3499 ppm (equivalent to 100 μg/cm^2 dose on diet surface area) test solution was pipetted upon the surface of 1 mL of solidified cool Southland Products Incorporated Beet Armyworm Diet (201 Stuart Island Road Lake Village, Ark. 71653) using an Eppendorf Repeater Plus with a 1 mL pipette tip. All pipetting of treatments was done in a Labconco Hood. Thirty minutes were allowed for the acetone to evaporate leaving a dose of 100 μg/cm^2 on the surface of the artificial diet. Two 24 hour old first instar Beet Armyworm(Spodoptera Exigua) larvae were placed in each well of the 128 well Bio-BA 128 Bioassay trays (CD International, Pitman, N.J., 08071, USA) using a #0 fine camel hair paint brush. Bioassay trays were sectioned into treatment groups of 8 with 16 replicates per treatment group (32 insects per treatment). […] The number of insects dead were counted out of the 32 insects total per treatment and the results are given in a table as a percent mortality at a dose of 100 μg/cm^2. […]

`Fc1cccc(Cl)c1-c1nc(NN=Cc2ccc(C(F)(F)F)cc2)nc(Nc2ccc(Cl)nc2)n1` [Example 51, 4-(2-chloro-6-fluorophenyl)-N-(6-chloropyridin-3-yl)-6-(2-(4-(trifluoromethyl)benzylidene)hydrazinyl)-1,3,5-triazin-2-amine]: the Mortality entry is given as “A (A=76-100% mortality)”.
